From ChEMBL document CHEMBL3621127, “8-Hydroxyquinoline: a privileged structure with a broad-ranging pharmacological potential” (Medchemcomm, 2015)

Tests used:
[1] = molecular target: Amyloid-beta precursor protein (Homo sapiens, UniProt P05067); assay: Inhibition of self-induced amyloid beta (1 to 42) (unknown origin) aggregation after 48 hrs by ThT assay
[2] = Acute toxicity in po dosed KM mouse measured for 14 days; type: organism-based; conditions: in vivo
Leishmania donovani = assay: Antileishmanial activity against amastigote form of Leishmania donovani MHOM//IN/80/Dd8 infected in mouse J774A.1 cells after 72 hrs by luciferase reporter gene assay; type: functional, organism-based; conditions: MHOM//IN/80/Dd8, J774.A1, 72 h
[3] = Selectivity index, ratio of CC50 for mouse J774A.1 cells to IC50 for amastigote form of Leishmania donovani MHOM//IN/80/Dd8 infected in mouse J774A.1 cells; type: functional
[4] = Inhibition of Mycobacterium tuberculosis Fructose 1,6-bisphosphate aldolase class 2 expressed in Escherichia coli BL21(DE3) assessed as cleavage of fructose 1,6-bisphosphate by fluorescence assay

Chain of Amyloid-beta precursor protein (P05067 whole entry): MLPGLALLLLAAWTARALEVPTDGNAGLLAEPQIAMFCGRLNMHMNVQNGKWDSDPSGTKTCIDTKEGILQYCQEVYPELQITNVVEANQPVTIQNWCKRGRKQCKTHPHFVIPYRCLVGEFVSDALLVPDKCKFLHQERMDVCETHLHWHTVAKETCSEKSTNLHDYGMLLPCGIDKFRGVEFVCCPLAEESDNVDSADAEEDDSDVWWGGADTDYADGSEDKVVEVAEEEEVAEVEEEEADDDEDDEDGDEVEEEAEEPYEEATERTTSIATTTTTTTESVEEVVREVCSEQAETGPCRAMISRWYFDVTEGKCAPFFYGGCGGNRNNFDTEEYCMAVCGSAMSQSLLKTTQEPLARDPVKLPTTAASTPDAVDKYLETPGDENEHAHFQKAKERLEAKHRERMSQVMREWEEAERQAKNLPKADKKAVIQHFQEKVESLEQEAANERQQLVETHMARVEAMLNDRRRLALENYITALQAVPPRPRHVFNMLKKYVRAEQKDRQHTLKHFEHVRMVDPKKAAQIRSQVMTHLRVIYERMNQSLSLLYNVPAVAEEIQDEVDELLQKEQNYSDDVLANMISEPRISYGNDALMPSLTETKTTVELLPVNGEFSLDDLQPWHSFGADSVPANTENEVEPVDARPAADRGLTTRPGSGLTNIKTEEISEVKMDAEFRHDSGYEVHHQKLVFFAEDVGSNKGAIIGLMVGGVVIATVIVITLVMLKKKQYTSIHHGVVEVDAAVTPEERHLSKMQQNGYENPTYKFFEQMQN

**Q.** For `Oc1ccc(/C=C/c2ccc(O)c3ncccc23)cc1`, which IC50 [1] is on record?
**A.** Its IC50 is 8.5 µM.

**Q.** What about the LD50 at 336 h [2] of the same compound?
**A.** Its LD50 at 336 h is over 2000 mg/kg.

**Q.** Which IC50 (Leishmania donovani) does the source give for `COc1ccc(OC)c(/C=C/NC(=O)c2cc(O)c3cccc(OC)c3n2)c1` here?
**A.** The IC50 was 3.75 µM.

**Q.** And the “Ratio CC50/IC50” value [3]?
**A.** The value was 25.27.

**Q.** Which IC50 (Leishmania donovani) does the source give for `CCCCCCCCCCCCCCCCOP(=O)([O-])OCC[N+](C)(C)C` [MILTEFOSINE] here?
**A.** Its IC50 is 12.4 µM.

**Q.** What about the “Ratio CC50/IC50” value [3] of the same compound?
**A.** Its value is 4.1.

**Q.** With `O=C(O)c1ccc2cccc(O)c2n1` as the compound, how does the IC50 [4] read?
**A.** The IC50 was 10 µM.
